Test results: the kinase profiling compilation of Christmann-Franck et al. (2016)

What was measured:
Assay in all cases: KINOMEscan competition binding
Details in all cases: compound 1.0 µM
LATS2 (human) = LATS2 (human) (UniProt Q9NRM7)
AURKC (human) = AURKC (human) (UniProt Q9UQB9)
TESK1 (human) = TESK1 (human) (UniProt Q15569)
ACVR2B (human) = ACVR2B (human) (UniProt Q13705)
DAPK1 (human) = DAPK1 (human) (UniProt P53355)
STK25 (human) = STK25 (human) (UniProt O00506)
MYLK2 (human) = MYLK2 (human) (UniProt Q9H1R3)
PRPF4B (human) = PRPF4B (human) (UniProt Q13523)
CHEK1 (human) = CHEK1 (human) (UniProt O14757)
IRAK4 (human) = IRAK4 (human) (UniProt Q9NWZ3)
FER (human) = FER (human) (UniProt P16591)
[1] = tested on: FGFR3 (human), P22607 [G697C]
STK32A (human) = STK32A (human) (UniProt Q8WU08)
MAP2K2 (human) = MAP2K2 (human) (UniProt P36507)
SBK1 (human) = SBK1 (human) (UniProt Q52WX2)
FGFR2 (human) = FGFR2 (human) (UniProt P21802)
TGFBR2 (human) = TGFBR2 (human) (UniProt P37173)
PRKCQ (human) = PRKCQ (human) (UniProt Q04759)
Sequence of PRKCQ (human) (Q04759 whole entry, looked up): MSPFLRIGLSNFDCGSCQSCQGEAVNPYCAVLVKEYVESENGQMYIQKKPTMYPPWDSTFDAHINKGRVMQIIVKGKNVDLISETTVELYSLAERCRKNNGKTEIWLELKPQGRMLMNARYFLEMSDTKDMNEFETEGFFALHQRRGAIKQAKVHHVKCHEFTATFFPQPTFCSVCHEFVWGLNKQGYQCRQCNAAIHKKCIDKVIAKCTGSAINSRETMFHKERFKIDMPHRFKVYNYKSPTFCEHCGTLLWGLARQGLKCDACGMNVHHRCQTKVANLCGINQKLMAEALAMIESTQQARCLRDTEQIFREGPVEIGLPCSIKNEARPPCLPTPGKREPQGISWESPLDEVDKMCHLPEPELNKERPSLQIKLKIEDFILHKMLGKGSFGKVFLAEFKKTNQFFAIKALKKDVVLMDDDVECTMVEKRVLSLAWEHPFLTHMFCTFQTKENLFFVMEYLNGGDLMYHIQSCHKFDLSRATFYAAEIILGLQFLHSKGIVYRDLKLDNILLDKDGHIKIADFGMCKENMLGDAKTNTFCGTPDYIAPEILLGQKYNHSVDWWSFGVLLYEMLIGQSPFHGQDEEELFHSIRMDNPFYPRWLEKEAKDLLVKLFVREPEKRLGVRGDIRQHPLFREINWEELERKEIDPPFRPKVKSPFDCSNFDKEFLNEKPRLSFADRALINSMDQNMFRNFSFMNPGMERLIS

CDK8 (human) = CDK8 (human) (UniProt P49336)
RPS6KA5 KD1 (human) = RPS6KA5 KD1 (human) (UniProt O75582)
MKNK1 (human) = MKNK1 (human) (UniProt Q9BUB5)
MAPK12 (human) = MAPK12 (human) (UniProt P53778)
FLT1 (human) = FLT1 (human) (UniProt P17948)
[2] = tested on: FLT3 (human), P36888 [D835H]
RIPK1 (human) = RIPK1 (human) (UniProt Q13546)
NEK4 (human) = NEK4 (human) (UniProt P51957)
CASK (human) = CASK (human) (UniProt O14936)
CDKL5 (human) = CDKL5 (human) (UniProt O76039)
MAST1 (human) = MAST1 (human) (UniProt Q9Y2H9)
YES1 (human) = YES1 (human) (UniProt P07947)
[3] = tested on: RET (human), P07949 [V804M]
PDGFRA (human) = PDGFRA (human) (UniProt P16234)
PRKG2 (human) = PRKG2 (human) (UniProt Q13237)
[4] = tested on: EGFR (human), P00533 [P753S; 747-752 del]
TRPM6 (human) = TRPM6 (human) (UniProt Q9BX84)
Sequence of TRPM6 (human) (Q9BX84 whole entry, looked up): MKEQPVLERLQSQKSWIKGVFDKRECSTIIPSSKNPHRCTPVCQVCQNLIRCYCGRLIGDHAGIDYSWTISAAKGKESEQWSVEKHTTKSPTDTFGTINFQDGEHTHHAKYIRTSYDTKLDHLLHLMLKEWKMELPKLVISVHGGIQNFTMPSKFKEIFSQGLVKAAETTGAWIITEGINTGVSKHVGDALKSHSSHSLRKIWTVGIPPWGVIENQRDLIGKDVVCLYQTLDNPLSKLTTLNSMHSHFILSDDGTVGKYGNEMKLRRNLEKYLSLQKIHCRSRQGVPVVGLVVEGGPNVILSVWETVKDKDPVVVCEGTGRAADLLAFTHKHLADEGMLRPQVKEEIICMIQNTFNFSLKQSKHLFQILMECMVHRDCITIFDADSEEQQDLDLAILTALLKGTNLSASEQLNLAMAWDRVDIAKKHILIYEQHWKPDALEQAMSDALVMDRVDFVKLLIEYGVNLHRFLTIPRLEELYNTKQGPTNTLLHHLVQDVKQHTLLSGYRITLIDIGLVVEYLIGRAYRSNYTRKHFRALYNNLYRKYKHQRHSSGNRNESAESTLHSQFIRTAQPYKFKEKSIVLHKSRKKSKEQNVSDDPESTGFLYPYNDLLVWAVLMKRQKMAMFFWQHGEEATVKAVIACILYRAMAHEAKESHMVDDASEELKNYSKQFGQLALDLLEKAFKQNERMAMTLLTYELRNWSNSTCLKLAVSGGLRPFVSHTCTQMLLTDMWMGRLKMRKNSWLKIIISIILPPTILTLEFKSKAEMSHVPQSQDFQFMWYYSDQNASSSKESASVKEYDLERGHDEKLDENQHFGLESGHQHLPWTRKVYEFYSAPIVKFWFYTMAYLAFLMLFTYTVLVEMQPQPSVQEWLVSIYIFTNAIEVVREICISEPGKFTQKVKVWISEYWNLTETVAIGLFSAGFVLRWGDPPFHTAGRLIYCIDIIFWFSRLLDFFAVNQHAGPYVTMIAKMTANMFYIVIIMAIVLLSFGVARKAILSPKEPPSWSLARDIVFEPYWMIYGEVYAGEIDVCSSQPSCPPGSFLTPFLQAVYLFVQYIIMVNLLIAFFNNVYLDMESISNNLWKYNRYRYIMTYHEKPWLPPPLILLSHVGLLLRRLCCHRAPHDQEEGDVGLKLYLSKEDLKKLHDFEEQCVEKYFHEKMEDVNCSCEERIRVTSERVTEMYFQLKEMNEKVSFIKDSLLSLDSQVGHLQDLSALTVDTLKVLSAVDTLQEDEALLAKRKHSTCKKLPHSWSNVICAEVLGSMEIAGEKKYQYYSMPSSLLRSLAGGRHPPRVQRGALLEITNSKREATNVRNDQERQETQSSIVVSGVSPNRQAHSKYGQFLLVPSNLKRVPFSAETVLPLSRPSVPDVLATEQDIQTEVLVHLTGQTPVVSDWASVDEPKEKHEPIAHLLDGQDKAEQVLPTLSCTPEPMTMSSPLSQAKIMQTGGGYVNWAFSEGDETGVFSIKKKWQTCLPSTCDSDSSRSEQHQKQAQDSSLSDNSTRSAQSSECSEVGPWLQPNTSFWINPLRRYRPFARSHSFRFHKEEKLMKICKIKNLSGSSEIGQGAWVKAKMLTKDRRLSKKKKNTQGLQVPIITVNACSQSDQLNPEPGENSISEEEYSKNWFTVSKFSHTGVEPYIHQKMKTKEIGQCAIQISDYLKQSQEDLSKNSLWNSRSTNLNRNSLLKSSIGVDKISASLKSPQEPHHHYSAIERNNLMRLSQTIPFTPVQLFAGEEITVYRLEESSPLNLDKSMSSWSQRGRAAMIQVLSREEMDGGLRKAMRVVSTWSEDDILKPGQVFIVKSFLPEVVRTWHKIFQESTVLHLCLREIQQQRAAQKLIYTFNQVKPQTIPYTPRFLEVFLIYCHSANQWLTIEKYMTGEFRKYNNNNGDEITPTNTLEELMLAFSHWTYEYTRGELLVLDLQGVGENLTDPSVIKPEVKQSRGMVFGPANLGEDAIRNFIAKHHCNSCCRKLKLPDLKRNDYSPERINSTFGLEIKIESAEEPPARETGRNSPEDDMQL

TXK (human) = TXK (human) (UniProt P42681)
BMPR2 (human) = BMPR2 (human) (UniProt Q13873)
Sequence of BMPR2 (human) (Q13873 whole entry, looked up): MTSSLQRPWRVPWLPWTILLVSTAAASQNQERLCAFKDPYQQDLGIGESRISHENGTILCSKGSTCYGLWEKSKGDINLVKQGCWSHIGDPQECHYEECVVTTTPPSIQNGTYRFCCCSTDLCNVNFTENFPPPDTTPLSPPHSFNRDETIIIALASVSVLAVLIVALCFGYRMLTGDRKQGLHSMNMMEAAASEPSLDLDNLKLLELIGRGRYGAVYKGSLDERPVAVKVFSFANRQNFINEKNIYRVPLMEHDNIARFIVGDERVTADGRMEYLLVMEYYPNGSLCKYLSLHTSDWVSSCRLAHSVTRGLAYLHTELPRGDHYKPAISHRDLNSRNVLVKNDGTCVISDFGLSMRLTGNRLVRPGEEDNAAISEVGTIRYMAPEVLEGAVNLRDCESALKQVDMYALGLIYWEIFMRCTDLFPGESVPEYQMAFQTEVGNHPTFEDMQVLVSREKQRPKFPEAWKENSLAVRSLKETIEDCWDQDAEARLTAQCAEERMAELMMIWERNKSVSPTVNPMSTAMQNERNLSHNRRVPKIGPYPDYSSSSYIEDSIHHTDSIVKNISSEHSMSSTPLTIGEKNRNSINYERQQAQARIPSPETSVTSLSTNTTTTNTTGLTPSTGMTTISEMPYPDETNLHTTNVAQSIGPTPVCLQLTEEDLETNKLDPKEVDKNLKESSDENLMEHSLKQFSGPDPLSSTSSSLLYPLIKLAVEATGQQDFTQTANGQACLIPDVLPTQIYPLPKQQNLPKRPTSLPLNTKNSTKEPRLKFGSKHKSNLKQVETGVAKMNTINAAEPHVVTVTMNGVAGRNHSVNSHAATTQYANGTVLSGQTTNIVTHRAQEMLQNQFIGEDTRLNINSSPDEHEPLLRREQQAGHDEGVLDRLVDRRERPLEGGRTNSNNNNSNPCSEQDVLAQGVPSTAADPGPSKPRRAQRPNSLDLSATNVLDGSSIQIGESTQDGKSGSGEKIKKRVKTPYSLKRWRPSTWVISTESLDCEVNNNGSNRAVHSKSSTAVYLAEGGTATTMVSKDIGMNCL

PI4KB (human) = PI4KB (human) (UniProt Q9UBF8)
GRK4 (human) = GRK4 (human) (UniProt P32298)
STK32B (human) = STK32B (human) (UniProt Q9NY57)
PTK2B (human) = PTK2B (human) (UniProt Q14289)
INSRR (human) = INSRR (human) (UniProt P14616)
AKT3 (human) = AKT3 (human) (UniProt Q9Y243)

Sequence of STK25 (human) (O00506 whole entry, looked up): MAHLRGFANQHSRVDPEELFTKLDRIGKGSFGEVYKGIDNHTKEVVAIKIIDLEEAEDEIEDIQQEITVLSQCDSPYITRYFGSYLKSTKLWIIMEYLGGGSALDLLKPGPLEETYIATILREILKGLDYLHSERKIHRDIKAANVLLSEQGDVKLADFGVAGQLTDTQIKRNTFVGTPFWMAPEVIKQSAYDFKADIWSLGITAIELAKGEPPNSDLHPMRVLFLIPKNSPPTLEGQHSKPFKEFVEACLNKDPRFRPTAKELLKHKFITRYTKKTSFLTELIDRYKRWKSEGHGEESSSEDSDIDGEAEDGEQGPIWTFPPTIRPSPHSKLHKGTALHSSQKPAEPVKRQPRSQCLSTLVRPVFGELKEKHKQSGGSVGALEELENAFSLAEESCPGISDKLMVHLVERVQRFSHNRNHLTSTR
Sequence of TESK1 (human) (Q15569 whole entry, looked up): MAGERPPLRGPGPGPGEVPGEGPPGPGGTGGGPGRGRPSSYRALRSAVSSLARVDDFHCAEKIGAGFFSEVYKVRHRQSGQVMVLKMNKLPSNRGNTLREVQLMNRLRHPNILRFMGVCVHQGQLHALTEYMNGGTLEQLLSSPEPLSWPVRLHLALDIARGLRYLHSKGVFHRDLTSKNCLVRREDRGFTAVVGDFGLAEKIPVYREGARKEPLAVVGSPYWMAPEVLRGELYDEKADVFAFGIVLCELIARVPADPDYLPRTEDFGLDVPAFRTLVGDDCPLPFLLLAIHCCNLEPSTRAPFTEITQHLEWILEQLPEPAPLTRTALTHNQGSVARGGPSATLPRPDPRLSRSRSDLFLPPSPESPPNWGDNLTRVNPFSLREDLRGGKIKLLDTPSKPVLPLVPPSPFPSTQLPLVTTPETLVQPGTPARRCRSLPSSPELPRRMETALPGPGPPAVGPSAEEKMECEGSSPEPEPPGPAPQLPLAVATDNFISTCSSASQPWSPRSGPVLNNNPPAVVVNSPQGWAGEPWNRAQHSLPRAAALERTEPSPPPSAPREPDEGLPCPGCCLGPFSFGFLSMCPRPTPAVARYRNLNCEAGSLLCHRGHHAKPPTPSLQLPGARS

CN(C)C/C=C/C(=O)Nc1cccc(C(=O)Nc2ccc(Nc3nccc(-c4c(-c5ccccc5)nn5ccccc45)n3)cc2)c1
kinase still bound, per cent of control (LATS2 (human)): 78% | kinase still bound, per cent of control (AURKC (human)): 84% | kinase still bound, per cent of control (TESK1 (human)): 99% | kinase still bound, per cent of control (ACVR2B (human)): 9.6% | kinase still bound, per cent of control (DAPK1 (human)): 94% | kinase still bound, per cent of control (STK25 (human)): 100% | kinase still bound, per cent of control (MYLK2 (human)): 100% | kinase still bound, per cent of control (PRPF4B (human)): 100% | kinase still bound, per cent of control (CHEK1 (human)): 100% | kinase still bound, per cent of control (IRAK4 (human)): 84% | kinase still bound, per cent of control (FER (human)): 87% | kinase still bound, per cent of control [1]: 93% | kinase still bound, per cent of control (STK32A (human)): 35% | kinase still bound, per cent of control (MAP2K2 (human)): 88% | kinase still bound, per cent of control (SBK1 (human)): 92% | kinase still bound, per cent of control (FGFR2 (human)): 49% | kinase still bound, per cent of control (TGFBR2 (human)): 10% | kinase still bound, per cent of control (PRKCQ (human)): 28% | kinase still bound, per cent of control (CDK8 (human)): 100% | kinase still bound, per cent of control (RPS6KA5 KD1 (human)): 100% | kinase still bound, per cent of control (MKNK1 (human)): 96% | kinase still bound, per cent of control (MAPK12 (human)): 94% | kinase still bound, per cent of control (FLT1 (human)): 9.3% | kinase still bound, per cent of control [2]: 13% | kinase still bound, per cent of control (RIPK1 (human)): 73% | kinase still bound, per cent of control (NEK4 (human)): 100% | kinase still bound, per cent of control (CASK (human)): 52% | kinase still bound, per cent of control (CDKL5 (human)): 100% | kinase still bound, per cent of control (MAST1 (human)): 99% | kinase still bound, per cent of control (YES1 (human)): 12% | kinase still bound, per cent of control [3]: 100% | kinase still bound, per cent of control (PDGFRA (human)): 4.4% | kinase still bound, per cent of control (PRKG2 (human)): 83% | kinase still bound, per cent of control [4]: 7% | kinase still bound, per cent of control (TRPM6 (human)): 100% | kinase still bound, per cent of control (TXK (human)): 24% | kinase still bound, per cent of control (BMPR2 (human)): 100% | kinase still bound, per cent of control (PI4KB (human)): 69% | kinase still bound, per cent of control (GRK4 (human)): 93% | kinase still bound, per cent of control (STK32B (human)): 30% | kinase still bound, per cent of control (PTK2B (human)): 85% | kinase still bound, per cent of control (INSRR (human)): 97% | kinase still bound, per cent of control (AKT3 (human)): 80%

CN(C)C/C=C/C(=O)Nc1cccc(C(=O)Nc2ccc(Nc3nccc(/C(C#N)=C4\Nc5ccccc5S4)n3)cc2)c1
kinase still bound, per cent of control (LATS2 (human)): 100% | kinase still bound, per cent of control (AURKC (human)): 76% | kinase still bound, per cent of control (TESK1 (human)): 100% | kinase still bound, per cent of control (ACVR2B (human)): 100% | kinase still bound, per cent of control (DAPK1 (human)): 100% | kinase still bound, per cent of control (STK25 (human)): 100% | kinase still bound, per cent of control (MYLK2 (human)): 100% | kinase still bound, per cent of control (PRPF4B (human)): 100% | kinase still bound, per cent of control (CHEK1 (human)): 100% | kinase still bound, per cent of control (IRAK4 (human)): 71% | kinase still bound, per cent of control (FER (human)): 82% | kinase still bound, per cent of control [1]: 31% | kinase still bound, per cent of control (STK32A (human)): 100% | kinase still bound, per cent of control (MAP2K2 (human)): 100% | kinase still bound, per cent of control (SBK1 (human)): 100% | kinase still bound, per cent of control (FGFR2 (human)): 100% | kinase still bound, per cent of control (TGFBR2 (human)): 100% | kinase still bound, per cent of control (PRKCQ (human)): 100% | kinase still bound, per cent of control (CDK8 (human)): 100% | kinase still bound, per cent of control (RPS6KA5 KD1 (human)): 100% | kinase still bound, per cent of control (MKNK1 (human)): 100% | kinase still bound, per cent of control (MAPK12 (human)): 100% | kinase still bound, per cent of control (FLT1 (human)): 32% | kinase still bound, per cent of control [2]: 62% | kinase still bound, per cent of control (RIPK1 (human)): 85% | kinase still bound, per cent of control (NEK4 (human)): 100% | kinase still bound, per cent of control (CASK (human)): 100% | kinase still bound, per cent of control (CDKL5 (human)): 21% | kinase still bound, per cent of control (MAST1 (human)): 100% | kinase still bound, per cent of control (YES1 (human)): 100% | kinase still bound, per cent of control [3]: 100% | kinase still bound, per cent of control (PDGFRA (human)): 100% | kinase still bound, per cent of control (PRKG2 (human)): 100% | kinase still bound, per cent of control [4]: 100% | kinase still bound, per cent of control (TRPM6 (human)): 100% | kinase still bound, per cent of control (TXK (human)): 100% | kinase still bound, per cent of control (BMPR2 (human)): 50% | kinase still bound, per cent of control (PI4KB (human)): 65% | kinase still bound, per cent of control (GRK4 (human)): 78% | kinase still bound, per cent of control (STK32B (human)): 99% | kinase still bound, per cent of control (PTK2B (human)): 100% | kinase still bound, per cent of control (INSRR (human)): 87% | kinase still bound, per cent of control (AKT3 (human)): 100%
